# According to paper PMC5882164, “A novel calcimimetic agent, evocalcet (MT-4580/KHK7580), suppresses the parathyroid cell function with little effect on the gastrointestinal tract or CYP isozymes in vivo and in vitro” (PLoS ONE, 2018):
# Several values for one entry are separate records, joined by “and”; a condition that tells them apart may be missing. Identical values can stand only once.
# Key:
# [1] = test system: serum calcium; test: 5/6 nephrectomized rats study: serum calcium level; format: in vivo, rat; parameters: Serum Ca levels: unit not given here; details: 5/6 Nx rats
# Experimental: Rats were 5/6 nephrectomized in two steps. Under anesthesia (pentobarbital, 50 mg/kg; intraperitoneally) and analgesia (lidocaine; topically), two-thirds of the left kidney was removed, and then the right kidney was removed after a seven-day interval. Seven days after the completion of 5/6 nephrectomy, the FR-2 diet was changed to a high-phosphate diet, containing 0.6% calcium and 0.9% phosphate (Oriental Yeast Co., Ltd., Tokyo, Japan). Approximately 2 weeks after the initiation of the high-phosphate diet, the 5/6 Nx rats were divided into five groups (n = 12/group) matched in terms of their body weight as well as their blood urea nitrogen (BUN) and serum PTH and calcium levels.
# (§1) In the single-dose study, blood samples were collected from the tail vein before and at 0.5, 2, 4, 8, 24, 48, and 72 h after the oral administration of vehicle (0.5% methyl cellulose solution) or evocalcet (0.03, 0.1, 0.3, or 1 mg/kg). In the repeated-dose study, vehicle or evocalcet was orally administered to the respective groups once daily for 14 days. Blood samples were obtained from the tail vein before the first administration and after the seventh and last administrations.
# The serum PTH level was measured using a Rat Intact PTH ELISA kit (Immutopics, Inc., San Clemente, CA). The serum calcium, phosphate and BUN levels were measured using an auto analyzer (Hitachi High-Technologies Corporation., Tokyo, Japan) or the following test kits: the Calcium E-test WAKO, the Phospha C-test WAKO, or the Blood Urea nitrogen B-test WAKO (Wako Pure Chemical Industries, Ltd., Osaka, Japan).
# [2] = Plasma concentrations of evocalcet after repeated oral administration to 5/6 nephrectomized rats; format: in vivo, rat; details: 5/6 Nx rats
# Experimental: as §1
# The plasma concentrations of evocalcet were determined after single or repeated oral administration in both normal and 5/6 Nx rats. The pharmacokinetic (PK) parameters of the rat plasma concentrations were calculated individually using Phoenix WinNonlin 6.2, a PK analysis software program (Pharsight Corporation, Sunnyvale, CA).
compound,measurement,setting,value
C[C@@H](N[C@H]1CCN(c2ccc(CC(=O)O)cc2)C1)c1cccc2ccccc12 [evocalcet],Serum Ca levels after the first administration,"[1]; 0.1 mg/kg, time 8 h, individual rats",7.692 and 7.609 and 7.307 and 7.085 and 7.975 and 4.442 and 6.559 and 7.908 and 8.235 and 7.683
same,"Serum Ca levels after the first administration, Mean","[1]; 0.1 mg/kg, time 24 h, group mean",7.626
same,Serum Ca levels after the first administration,"[1]; 0.1 mg/kg, time 24 h, individual rats",7.618 and 8.042 and 7.976 and 7.739 and 7.539 and 7.979 and 6.079 and 7.486 and 8.194 and 7.356
same,Serum Ca levels,"[1]; 0.3 mg/kg, day 0 (before), group mean",7.177
same,Serum Ca levels,"[1]; 0.3 mg/kg, day 0 (before), individual rats, 0.3 mg/kg",7.714 and 7.098 and 4.207 and 6.520 and 8.019 and 4.857 and 7.006 and 8.419 and 8.245 and 7.878 and 7.711 and 8.450
same,Serum Ca levels,"[1]; 0.3 mg/kg, day 7 (24 h after administration), group mean",5.744
same,Serum Ca levels,"[1]; 0.3 mg/kg, day 7 (24 h after administration), individual rats, 0.3 mg/kg",6.617 and 4.991 and 5.484 and 4.834 and 5.302 and 6.718 and 6.297 and 6.366 and 7.085 and 5.154 and 4.887 and 5.195
same,Serum Ca levels,"[1]; 0.3 mg/kg, day 14 (24 h after administration), group mean",5.948
same,Serum Ca levels,"[1]; 0.3 mg/kg, day 14 (24 h after administration), individual rats, 0.3 mg/kg",6.601 and 5.324 and 6.337 and 4.673 and 5.104 and 7.592 and 6.733 and 6.057 and 5.865 and 5.887 and 5.547 and 5.661
same,"Serum Ca levels after the first administration, Mean","[1]; 0.3 mg/kg, time 0 h, group mean",7.177
same,"Serum Ca levels after the first administration, Mean","[1]; 0.3 mg/kg, time 0.5 h, group mean",6.778
same,"Serum Ca levels after the first administration, Mean","[1]; 0.3 mg/kg, time 2 h, group mean",6.136
same,"Serum Ca levels after the first administration, Mean","[1]; 0.3 mg/kg, time 4 h, group mean",6.714
same,"Serum Ca levels after the first administration, Mean","[1]; 0.3 mg/kg, time 8 h, group mean",7.218
same,"Serum Ca levels after the first administration, Mean","[1]; 0.3 mg/kg, time 24 h, group mean",7.101
same,Serum Ca levels,"[1]; 1 mg/kg, day 0 (before), group mean",7.784
same,Serum Ca levels,"[1]; 1 mg/kg, day 0 (before), individual rats, 1 mg/kg",7.396 and 7.591 and 7.831 and 7.728 and 8.433 and 7.868 and 8.231 and 7.824 and 8.217 and 9.292 and 6.900 and 6.102
same,Serum Ca levels,"[1]; 1 mg/kg, day 7 (24 h after administration), group mean",5.027
same,Serum Ca levels,"[1]; 1 mg/kg, day 7 (24 h after administration), individual rats, 1 mg/kg",5.540 and 3.798 and 5.148 and 4.511 and 4.963 and 5.487 and 4.665 and 5.044 and 4.307 and 5.493 and 4.570 and 6.793
same,Serum Ca levels,"[1]; 1 mg/kg, day 14 (24 h after administration), group mean",4.801
same,Serum Ca levels,"[1]; 1 mg/kg, day 14 (24 h after administration), individual rats, 1 mg/kg",5.359 and 3.730 and 4.903 and 4.736 and 4.928 and 5.192 and 4.708 and 5.906 and 3.598 and 4.859 and 4.220 and 5.475
same,"Serum Ca levels after the first administration, Mean","[1]; 1 mg/kg, time 0 h, group mean",7.784
same,"Serum Ca levels after the first administration, Mean","[1]; 1 mg/kg, time 0.5 h, group mean",6.460
same,"Serum Ca levels after the first administration, Mean","[1]; 1 mg/kg, time 2 h, group mean",5.290
same,"Serum Ca levels after the first administration, Mean","[1]; 1 mg/kg, time 4 h, group mean",5.870
same,"Serum Ca levels after the first administration, Mean","[1]; 1 mg/kg, time 8 h, group mean",6.299
same,"Serum Ca levels after the first administration, Mean","[1]; 1 mg/kg, time 24 h, group mean",6.253
same,Doses that steadily decreased the serum calcium level,"[1]; once daily oral for 14 days, 24 h after administration on days 7 and 14",≥ 0.3 mg/kg
same,Doses that significantly decreased the serum calcium level,"[1]; single oral dose, vs vehicle group",≥ 0.1 mg/kg
same,Plasma concentration,"[2]; repeated oral 0.03 mg/kg, Day 1, 0.5 h, individual rats, 0.03 mg/kg",36.58 ng/mL and 70.85 ng/mL and 82.54 ng/mL and 69.68 ng/mL and 77.69 ng/mL and 41.93 ng/mL and 76.13 ng/mL
same,Plasma concentration,"[2]; repeated oral 0.03 mg/kg, Day 1, 0.5 h, mean",64.96 ng/mL
same,Plasma concentration,"[2]; repeated oral 0.03 mg/kg, Day 1, 24 h, individual rats, 0.03 mg/kg",1.641 ng/mL and 1.374 ng/mL and 5.810 ng/mL and 8.969 ng/mL and 1.766 ng/mL and 7.813 ng/mL and 3.603 ng/mL
same,Plasma concentration,"[2]; repeated oral 0.03 mg/kg, Day 1, 24 h, mean",4.696 ng/mL
same,Plasma concentration,"[2]; repeated oral 0.03 mg/kg, Day 7, 24 h, individual rats, 0.03 mg/kg",2.975 ng/mL and 2.144 ng/mL and 14.97 ng/mL and 24.57 ng/mL and 7.857 ng/mL and 2.119 ng/mL and 5.014 ng/mL
same,Plasma concentration,"[2]; repeated oral 0.03 mg/kg, Day 7, 24 h, mean",6.838 ng/mL
same,Plasma concentration,"[2]; repeated oral 0.03 mg/kg, Day 14, 0.5 h, individual rats, 0.03 mg/kg",19.34 ng/mL and 56.51 ng/mL and 53.07 ng/mL and 90.16 ng/mL and 75.39 ng/mL and 23.11 ng/mL and 72.02 ng/mL
same,Plasma concentration,"[2]; repeated oral 0.03 mg/kg, Day 14, 0.5 h, mean",51.46 ng/mL
same,Plasma concentration,"[2]; repeated oral 0.03 mg/kg, Day 14, 24 h, individual rats, 0.03 mg/kg",3.012 ng/mL and 3.971 ng/mL and 9.010 ng/mL and 15.92 ng/mL and 10.68 ng/mL and 0.6289 ng/mL and 6.008 ng/mL
same,Plasma concentration,"[2]; repeated oral 0.03 mg/kg, Day 14, 24 h, mean",9.081 ng/mL
same,Plasma concentration,"[2]; repeated oral 0.1 mg/kg, Day 1, 0.5 h, individual rats, 0.1 mg/kg",202.3 ng/mL and 254.1 ng/mL and 209.7 ng/mL and 142.8 ng/mL and 254.2 ng/mL and 143.9 ng/mL and 56.83 ng/mL and 269.5 ng/mL
same,Plasma concentration,"[2]; repeated oral 0.1 mg/kg, Day 1, 24 h, individual rats, 0.1 mg/kg",15.16 ng/mL and 12.10 ng/mL and 8.688 ng/mL and 14.16 ng/mL and 21.79 ng/mL and 16.89 ng/mL and 67.75 ng/mL and 32.61 ng/mL
same,Plasma concentration,"[2]; repeated oral 0.1 mg/kg, Day 7, 24 h, individual rats, 0.1 mg/kg",58.71 ng/mL and 48.75 ng/mL and 30.51 ng/mL and 37.24 ng/mL and 78.95 ng/mL and 69.59 ng/mL and 161.4 ng/mL and 61.03 ng/mL
same,Plasma concentration,"[2]; repeated oral 0.1 mg/kg, Day 14, 0.5 h, individual rats, 0.1 mg/kg",127.4 ng/mL and 39.41 ng/mL and 36.70 ng/mL and 54.83 ng/mL and 93.73 ng/mL and 108.2 ng/mL and 128.5 ng/mL and 174.0 ng/mL
same,Plasma concentration,"[2]; repeated oral 0.1 mg/kg, Day 14, 24 h, individual rats, 0.1 mg/kg",5.812 ng/mL and 5.988 ng/mL and 9.558 ng/mL and 3.499 ng/mL and 32.22 ng/mL and 49.20 ng/mL and 104.7 ng/mL and 11.96 ng/mL
same,Plasma concentration,"[2]; 0.03 mg/kg oral once daily, Day 1, 0.5 h, mean, n = 12",64.96 ng/mL
same,Plasma concentration,"[2]; 0.03 mg/kg oral once daily, Day 1, 24 h, mean, n = 12",4.696 ng/mL
same,Plasma concentration,"[2]; 0.03 mg/kg oral once daily, Day 7, 24 h, mean, n = 12",6.838 ng/mL
same,Plasma concentration,"[2]; 0.03 mg/kg oral once daily, Day 14, 0.5 h, mean, n = 12",51.46 ng/mL
same,Plasma concentration,"[2]; 0.03 mg/kg oral once daily, Day 14, 24 h, mean, n = 12",9.081 ng/mL
same,Plasma concentration,"[2]; 0.1 mg/kg oral once daily, Day 1, 0.5 h, mean, n = 12",204.2 ng/mL
same,Plasma concentration,"[2]; 0.1 mg/kg oral once daily, Day 1, 24 h, mean, n = 12",21.78 ng/mL
same,Plasma concentration,"[2]; 0.1 mg/kg oral once daily, Day 7, 24 h, mean, n = 12",53.46 ng/mL
same,Plasma concentration,"[2]; 0.1 mg/kg oral once daily, Day 14, 0.5 h, mean, n = 12",133.8 ng/mL
same,Plasma concentration,"[2]; 0.1 mg/kg oral once daily, Day 14, 24 h, mean, n = 12",29.24 ng/mL
same,Plasma concentration,"[2]; 0.3 mg/kg oral once daily, Day 1, 0.5 h, mean, n = 12",545.5 ng/mL
same,Plasma concentration,"[2]; 0.3 mg/kg oral once daily, Day 1, 24 h, mean, n = 12",90.48 ng/mL
same,Plasma concentration,"[2]; 0.3 mg/kg oral once daily, Day 7, 24 h, mean, n = 12",190.6 ng/mL
same,Plasma concentration,"[2]; 0.3 mg/kg oral once daily, Day 14, 0.5 h, mean, n = 12",686.9 ng/mL
same,Plasma concentration,"[2]; 0.3 mg/kg oral once daily, Day 14, 24 h, mean, n = 12",102.1 ng/mL
same,Plasma concentration,"[2]; 1 mg/kg oral once daily, Day 1, 0.5 h, mean, n = 12",1635 ng/mL
same,Plasma concentration,"[2]; 1 mg/kg oral once daily, Day 1, 24 h, mean, n = 12",285.7 ng/mL
same,Plasma concentration,"[2]; 1 mg/kg oral once daily, Day 7, 24 h, mean, n = 12",557.2 ng/mL
same,Plasma concentration,"[2]; 1 mg/kg oral once daily, Day 14, 0.5 h, mean, n = 12",1769 ng/mL
same,Plasma concentration,"[2]; 1 mg/kg oral once daily, Day 14, 24 h, mean, n = 12",490.6 ng/mL
